{"source": "patent US20190191695A1", "about": "“DISSOLVENT COMPOSITION, STABLE UNDER COLD CONDITIONS” (OLEON NV, priority 2016, published 2019)", "assay_type_in_all_cases": "physicochemical", "key": {"[1]": {"assay": "Density (viscometer/densimeter SVM 3000)", "method": "(§1) The equipment used is: • 15 mL flasks • A refrigerated cabinet at 0° C. (Panasonic—MR-154-PE) • 3 mL pipettes • An analytical balance (OHAUS Adventurer Pro AV264C) • A watch glass • A spatula • A tensiometer, brand name K100, sold by KRÜSS GmbH, Borsteler Chaussee 85, 22453 Hamburg, Germany. • A 70 mL crystallizing dish • A platinum blade • KRUSS laboratory software • A viscometer/densimeter SVM 3000—Anton Paar\n(§2) The compositions of formulae 19 to 23 and the dispersants of the prior art are tested for surface tension in order to find the wettability thereof, by using a fine plate (called a Wilhelmy plate) connected to an analytical balance. The method of the Wilhelmy blade on the K100 is used. A 70 mL crystallizing dish filled with 30 mL of product to be tested is placed in the K100. The platinum blade is arranged over the product. The KRUSS Laboratory software determines the surface tension of the liquid, via the force felt by the blade in the liquid. The viscosity and the density are also measured."}, "[2]": {"assay": "Surface tension, Wilhelmy blade method on the K100 tensiometer", "method": "as §1, §2"}, "[3]": {"assay": "Viscosity (viscometer/densimeter SVM 3000)", "method": "as §1, §2"}}, "data": [{"smiles": "CN1CCCC1=O", "note": "[NMP, N-methyl-2-pyrrolidone]", "values": [{"measurement": "Density at 20° C.", "setting": "[1]", "value": 1.03, "unit": "g/mL"}, {"measurement": "Surface tension at 20° C.", "setting": "[2]", "value": 40, "unit": "mN/m"}, {"measurement": "Viscosity at 20° C.", "setting": "[3]", "value": 1.7, "unit": "mm^2/s"}]}]}
